What was measured:
[1] = molecular target: T1, human adenosine-A1 receptors (Homo sapiens, UniProt P30542); experiment: In vitro affinity for human adenosine-A1 receptors (radioligand [3H]DPCPX); format: binding; conditions: human recombinant receptors expressed in CHO cells; for Ki: read-out: Adenosine receptor affinity (binding) A1 pKi (converted)
T1 construct: expressed in transfected cells; host or cells: CHO cells
T1 sequence (P30542 1-326): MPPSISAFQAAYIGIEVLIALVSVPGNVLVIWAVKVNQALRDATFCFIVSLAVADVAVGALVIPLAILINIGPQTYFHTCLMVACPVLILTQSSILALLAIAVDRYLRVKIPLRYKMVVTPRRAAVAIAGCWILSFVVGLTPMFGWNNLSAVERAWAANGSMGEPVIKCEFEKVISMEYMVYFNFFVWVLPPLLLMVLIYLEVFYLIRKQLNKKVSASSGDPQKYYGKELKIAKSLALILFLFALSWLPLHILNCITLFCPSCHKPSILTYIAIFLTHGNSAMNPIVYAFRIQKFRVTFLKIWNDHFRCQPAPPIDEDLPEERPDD
Description: Affinity of the compounds for human adenosine-A1 receptors was determined using the receptor binding assay described by A. Townsend-Nicholson and P. R. Schofield (Biol. Chem., 269, 2373, 1994), using human recombinant receptors expressed in CHO cells, and [^3H]DPCPX as radioligand.

[2] = molecular target: T2, human adenosine-A2A receptors (Homo sapiens, UniProt P29274); experiment: In vitro affinity for human adenosine-A2A receptors (radioligand [3H]CGS 21680); format: binding; conditions: human recombinant receptors expressed in HEK-293 cells; for Ki: read-out: Adenosine receptor affinity (binding) A2A pKi (converted)
T2 construct: expressed in transfected cells; host or cells: HEK-293 cells
Description: Affinity of the compounds for human adenosine-A2A receptors was determined using the receptor binding assay described by D. R. Luthin et al., (Mol. Pharmacol., 47, 307, 1995), using human recombinant receptors expressed in HEK-293 cells, and [^3H]CGS 21680 as radioligand.

[3] = molecular target: T3, human Adenosine A3 receptor (Homo sapiens, UniProt P0DMS8); experiment: In vitro affinity for human adenosine-A3 receptors (radioligand [125I]-AB-MECA); format: binding; set-up: expressed in transfected cells; host or cells: HEK 293 cells (membrane preparations); conditions: membranes of HEK 293 cells stably expressing human A3, [125I]-AB-MECA, 22° C., 90 minutes; for Ki: read-out: Adenosine receptor affinity (binding) A3 pKi (converted)
T3 sequence (P0DMS8 1-318): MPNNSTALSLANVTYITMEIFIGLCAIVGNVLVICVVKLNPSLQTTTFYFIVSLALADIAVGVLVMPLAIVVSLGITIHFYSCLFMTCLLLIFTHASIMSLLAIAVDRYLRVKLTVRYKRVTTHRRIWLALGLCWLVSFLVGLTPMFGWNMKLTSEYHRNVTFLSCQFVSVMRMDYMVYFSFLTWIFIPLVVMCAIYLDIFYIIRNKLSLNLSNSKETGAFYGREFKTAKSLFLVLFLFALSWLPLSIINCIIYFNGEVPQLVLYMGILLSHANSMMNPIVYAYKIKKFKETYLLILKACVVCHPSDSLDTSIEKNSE
Description: Affinity of the compounds for human adenosine-A3 receptors was determined using the receptor binding assay described by C. A. Salvatore et al.: “Molecular cloning and characterization of the human A3 adenosine receptor”, Proc. Natl. Acad. Sci. USA, 90, 10365-10369, 1993. Briefly, membrane preparations were obtained from human recombinant (HEK 293) cells in which the human adenosine-A3 receptor was stably expressed. […] Separation of bound radioactivity from free was done by filtration through Packard GF/B glass fiber filters with several washings with ice-cold buffer using a Packard cell harvester. Bound radioactivity was measured with a scintillation counter (Topcount, Packard) using a liquid scintillation cocktail (Microscint 0, Packard). […] Determination of In Vitro Functional Activity on Human Adenosine A3 Receptors Using an Aequorin-based Assay

[4] = molecular target: T3, human Adenosine A3 receptor; experiment: In vitro functional activity on human adenosine A3 receptors using an Aequorin-based assay; format: cell-based; set-up: A. et al. (Acc. Number GenBank: L22607); host or cells: CHO-K1 cells stably expressing mitochondrially targeted aequorin and Galpha16; conditions: hA3-Aequorin CHO-K1 cells; for EC50: agonist mode, concentrations up to 10^−5 M, read-out: Functional activity A3 agonism pEC50 (converted); for Kb: read-out: Functional activity A3 antagonism pA2 (converted)
Description: A stable monoclonal hA3-Aequorin cell line was provided by Euroscreen. The coding region encoding the human Adenosine A3 receptor was amplified by polymerase chain reaction (PCR), using human lung cDNA as template. The PCR product was ligated in the expression vector pEFIN3 (Invitrogen), and the complete sequence of the insert was then established. […] A. et al. (Acc. Number GenBank: L22607). The expression plasmid containing the coding sequence of the human Adenosine A3 receptor was transfected in CHO-K1 cells stably expressing mitochondrially targetted Aequorin and Gα16. Resistant clones were selected in the presence of 400 μg/ml G418 and isolated by limiting dilution. […] The hA3-Aequorin cells express mitochondrially targetted apo-Aequorin. Cells have to be loaded with coelenterazine, in order to reconstitute active Aequorin. After binding of agonists to the hA3 receptor, the intracellular calcium concentration increases, which leads to a luminescent response. Binding of calcium to the apo-Aequorin/coelenterazine complex leads to an oxidation reaction of coelenterazine, which results in the production of apo-Aequorin, coelenteramide, CO2 and light (λmax 469 nm). This luminescent response is dependent on the agonist concentration.
Assay-protocol: • Dilute the loaded cells 18× in Dulbecco's medium without PhenolRed (Gibco BRL), pre-heated to 37° C., resulting in a concentration of 2.8*10^5 cells/ml. • Stir for 1 hour at room temperature. • Add 10 μl compound or control per well in white 96-well plates. • Add 90 μl of diluted cells (2.5*10^4 cells/well). • Measure chemoluminescence immediately for 20 seconds. • In antagonist mode 50 μl 10^−6 N6-benzyl-NECA is added as the agonist. • Measure chemoluminescence immediately for 20 seconds using the MicroBetaJet (PerkinElmer).

[5] = molecular target: T4, human adenosine-A2B receptors (Homo sapiens, UniProt P29275); experiment: In vitro affinity for human adenosine-A2B receptors (radioligand [3H]MRS 1754); format: binding; conditions: human recombinant receptors expressed in HEK-293 cells; for Ki: read-out: Adenosine receptor affinity (binding) A2B pKi (converted)
T4 construct: expressed in transfected cells; host or cells: HEK-293 cells
T4 sequence (P29275 1-332): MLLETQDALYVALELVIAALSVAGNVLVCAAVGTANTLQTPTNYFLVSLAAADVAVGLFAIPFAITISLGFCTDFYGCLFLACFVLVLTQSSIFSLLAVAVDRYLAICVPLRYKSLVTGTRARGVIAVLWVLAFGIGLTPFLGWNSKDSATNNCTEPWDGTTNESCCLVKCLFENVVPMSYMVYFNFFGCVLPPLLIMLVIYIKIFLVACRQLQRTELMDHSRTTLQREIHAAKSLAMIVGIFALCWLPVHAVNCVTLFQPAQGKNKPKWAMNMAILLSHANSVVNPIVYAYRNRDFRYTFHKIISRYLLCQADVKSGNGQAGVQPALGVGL
Description: Affinity of the compounds for human adenosine-A2B receptors was determined using the receptor binding assay described by J. H. Stehle et al. (Mol. Endocrinol., 6, 384, 1992), using human recombinant receptors expressed in HEK-293 cells, and [^3H]MRS 1754 as radioligand.

[6] = antagonist mode, N6-benzyl-NECA as the agonist

T2 sequence (P29274 whole entry): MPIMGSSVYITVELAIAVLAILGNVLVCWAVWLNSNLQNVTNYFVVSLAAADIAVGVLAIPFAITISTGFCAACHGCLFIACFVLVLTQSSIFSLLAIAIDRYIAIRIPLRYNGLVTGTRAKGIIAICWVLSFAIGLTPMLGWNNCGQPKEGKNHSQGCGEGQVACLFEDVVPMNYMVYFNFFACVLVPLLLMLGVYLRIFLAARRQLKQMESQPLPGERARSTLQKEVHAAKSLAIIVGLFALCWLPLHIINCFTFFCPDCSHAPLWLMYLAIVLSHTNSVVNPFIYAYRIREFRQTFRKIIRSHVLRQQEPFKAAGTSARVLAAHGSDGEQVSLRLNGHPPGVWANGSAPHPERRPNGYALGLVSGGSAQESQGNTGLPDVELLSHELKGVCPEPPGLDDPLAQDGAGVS

Work on `Cn1c(-c2ccco2)nc2c(C(F)(F)F)nc(NCCc3ccccc3)nc21` [Compound 13, 8-(furan-2-yl)-6-trifluoromethyl-9-methyl-2-phenethylamino purine] yielded a Ki [1] greater than 10 µM, a Ki [2] of 7.94 µM and a Ki [3] of 1.26 µM. For the same compound, the EC50 [4] was greater than 10 µM and the Kb [4, 6] was 0.158 µM.

For `Cn1cnc2c(C(F)(F)F)nc(NCc3ccccc3)nc21` [Compound 7, 6-trifluoromethyl-9-methyl-2-benzylamino purine], the Ki [1] was greater than 10 µM, the Ki [5] was greater than 10 µM and the Ki [2] was greater than 10 µM. For the same compound, the Ki [3] was 3.16 µM, the EC50 [4] was greater than 10 µM and the Kb [4, 6] was 1.58 µM.

`Cn1c(/C=C\c2ccccc2)nc2c(C(F)(F)F)nc(NCCc3ccccc3)nc21` [Compound 22, 8-Z-styryl-6-trifluoromethyl-9-methyl-2-phenethylamino purine] gave a Ki [1] greater than 10 µM, a Ki [2] greater than 10 µM and a Ki [3] of 2 µM. For the same compound, the EC50 [4] was greater than 10 µM and the Kb [4, 6] was 1 µM.

Work on `Cn1c(Br)nc2c(C(F)(F)F)nc(NCCc3ccccc3)nc21` [Compound 11, 8-bromo-6-trifluoromethyl-9-methyl-2-phenethylamino purine] yielded a Ki [1] greater than 10 µM, a Ki [2] greater than 10 µM and a melting point of 131 to 139 °C. It also gave a Ki [3] of 1 µM.

In the case of `FC(F)(F)c1nc(NCc2ccccc2)nc2nc[nH]c12` [Compound 6, 6-trifluoromethyl-2-benzylamino purine], the Ki [1] is reported as 3.98 µM, the Ki [5] is reported as greater than 10 µM and the Ki [2] is reported as 20 µM. The Ki [3] was 0.02 µM, the EC50 [4] was greater than 10 µM and the Kb [4, 6] was 0.158 µM.

In the case of `Cn1c(-c2cccs2)nc2c(C(F)(F)F)nc(NCCc3ccccc3)nc21` [Compound 14, 8-(thien-2-yl)-6-trifluoromethyl-9-methyl-2-phenethylamino purine], the Ki [1] is reported as 6.31 µM, the Ki [2] is reported as greater than 10 µM and the Ki [3] is reported as 1.58 µM. The EC50 [4] was greater than 10 µM and the Kb [4, 6] was 1.58 µM.

With `OC[C@H]1O[C@@H](n2cnc3c(C(F)(F)F)nc(N4CCC(O)CC4)nc32)[C@H](O)[C@@H]1O` [Compound 4, 2-(4-OH-piperidinyl)-6-trifluoromethyl-9-β-D-ribofuranosyl purine] the Ki [1] was greater than 10 µM, the Ki [2] was greater than 10 µM and the Ki [3] was 15.8 µM. For the same compound, the EC50 [4] was greater than 10 µM and the Kb [4, 6] was 0.2 µM.

`OC[C@H]1O[C@@H](n2cnc3c(C(F)(F)F)nc(NCc4ccccc4)nc32)[C@H](O)[C@@H]1O` [Compound 8, 2-benzylamino-6-trifluoromethyl-9-β-D-ribofuranosyl purine] gave a Ki [1] of 7.94 µM, a Ki [5] greater than 10 µM and a Ki [2] of 12.6 µM. The Ki [3] was 0.316 µM and the Kb [4, 6] was 0.0398 µM.

With `OC[C@H]1O[C@@H](n2cnc3c(C(F)(F)F)nc(NCCc4ccccc4)nc32)[C@H](O)[C@@H]1O` [Compound 26, 2-phenethylamino-6-CF3-9-β-D-ribofuranosyl purine] the “Adenosine receptor affinity (binding) A1 pKi” value [1] was less than 5.0, the “Adenosine receptor affinity (binding) A2B pKi” value [5] was less than 5.0 and the “Adenosine receptor affinity (binding) A2A pKi” value [2] was less than 5.0. The “Functional activity A3 antagonism pA2” value [4, 6] was 9.8.

In the case of `CC(C)(C)OC(=O)OCn1cnc2c(C(F)(F)F)nc(NCc3ccccc3)nc21` [Compound 29, 6-trifluoromethyl-2-benzylamino-9-BocOM-purine], the Ki [1] is reported as 2.51 µM, the Ki [2] is reported as 20 µM and the Ki [3] is reported as 0.0794 µM. It also gave an EC50 [4] greater than 10 µM and a Kb [4, 6] of 7.94 µM.

In the case of `Cn1cnc2c(C(F)(F)F)nc(NCCc3ccccc3)nc21` [Compound 10, 6-trifluoromethyl-9-methyl-2-phenethylamino purine], the Ki [1] is reported as 6.31 µM, the Ki [5] is reported as 12.6 µM and the Ki [2] is reported as 15.8 µM. The Ki [3] was 1.58 µM, the EC50 [4] was greater than 10 µM and the Kb [4, 6] was 3.16 µM.

In the case of `FC(F)(F)c1nc(NCCc2ccccc2)nc2nc[nH]c12` [Compound 9, 6-trifluoromethyl-2-phenethylamino purine], the Ki [1] is reported as 1 µM, the Ki [5] is reported as greater than 10 µM and the Ki [2] is reported as 12.6 µM. It also gave a Ki [3] of 0.0126 µM, an EC50 [4] greater than 10 µM and a Kb [4, 6] of 0.002 µM.

`Cn1c(I)nc2c(C(F)(F)F)nc(NCCc3ccccc3)nc21` [Compound 12, 8-iodo-6-trifluoromethyl-9-methyl-2-phenethylamino purine] gave a Ki [1] greater than 10 µM, a Ki [2] greater than 10 µM and a Ki [3] of 2.51 µM. It also gave an EC50 [4] greater than 10 µM and a Kb [4, 6] of 2 µM.

For `OC[C@H]1O[C@@H](n2cnc3c(C(F)(F)F)nc(N4CCCCC4)nc32)[C@H](O)[C@@H]1O` [Compound 3, 2-piperidinyl-6-trifluoromethyl-9-β-D-ribofuranosyl purine], the “Adenosine receptor affinity (binding) A1 pKi” value [1] was less than 5.0, the “Adenosine receptor affinity (binding) A2A pKi” value [2] was less than 5.0 and the “Adenosine receptor affinity (binding) A3 pKi” value [3] was 5.4.

From US7371737B2, “2-substituted-6-trifluoromethyl purine derivatives with adenosine-A3 antagonistic activity” (Solvay Pharmaceuticals, B.V., priority 2004, dated 2008)
